One may read the pIC50 as the IC50 on a negative log10 scale, so that one unit is a factor of ten. For orientation: pKd means −log10 of the Kd, conventionally taken in molar units. Broadly, the melting point is the temperature, or range, at which the solid turns liquid.

pIC50, pKd: −log10 of the molar value. Where two headings read alike, the source gives them in different places. Bounds are passed on as bounds.

Experimental findings from patent US10526316B2, “Quinoxaline and pyridopyrazine derivatives as PI3Kβ inhibitors” (Janssen Pharmaceutica NV, priority 2015, dated 2020) are described below.

For data set [1], the system named is Akt phosphorylated at Thr308 in PC-3 cells. Description: Cellular assay: phosphorylation of Akt at Thr308 in PC-3 cells (MSD ELISA). The class given is cell-based. To be noted: PC-3 cells, 60 min compound incubation, MSD ELISA, read-out: IC50 pAkt_Thr308. In outline: (§1)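 Compound treatment of PC-3 cells lasted 60 min at 37° C (0.3% DMSO). Lysates were then applied to plates carrying capture antibodies for the relevant phospho-site, and bound Akt was detected with an electrochemiluminescent anti-total Akt antibody; IC50s derive from five-point curves.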
A general note: An ELISA detects its analyte on a solid surface through an enzyme-linked reagent.

In a further data set the target is T1, PI3Kδ (Homo sapiens, UniProt O00329).
T1 construct: purchased DiscoveRx Corporation, San Diego (contract service, KINOMEscan)
T1 sequence (O00329 1-1044): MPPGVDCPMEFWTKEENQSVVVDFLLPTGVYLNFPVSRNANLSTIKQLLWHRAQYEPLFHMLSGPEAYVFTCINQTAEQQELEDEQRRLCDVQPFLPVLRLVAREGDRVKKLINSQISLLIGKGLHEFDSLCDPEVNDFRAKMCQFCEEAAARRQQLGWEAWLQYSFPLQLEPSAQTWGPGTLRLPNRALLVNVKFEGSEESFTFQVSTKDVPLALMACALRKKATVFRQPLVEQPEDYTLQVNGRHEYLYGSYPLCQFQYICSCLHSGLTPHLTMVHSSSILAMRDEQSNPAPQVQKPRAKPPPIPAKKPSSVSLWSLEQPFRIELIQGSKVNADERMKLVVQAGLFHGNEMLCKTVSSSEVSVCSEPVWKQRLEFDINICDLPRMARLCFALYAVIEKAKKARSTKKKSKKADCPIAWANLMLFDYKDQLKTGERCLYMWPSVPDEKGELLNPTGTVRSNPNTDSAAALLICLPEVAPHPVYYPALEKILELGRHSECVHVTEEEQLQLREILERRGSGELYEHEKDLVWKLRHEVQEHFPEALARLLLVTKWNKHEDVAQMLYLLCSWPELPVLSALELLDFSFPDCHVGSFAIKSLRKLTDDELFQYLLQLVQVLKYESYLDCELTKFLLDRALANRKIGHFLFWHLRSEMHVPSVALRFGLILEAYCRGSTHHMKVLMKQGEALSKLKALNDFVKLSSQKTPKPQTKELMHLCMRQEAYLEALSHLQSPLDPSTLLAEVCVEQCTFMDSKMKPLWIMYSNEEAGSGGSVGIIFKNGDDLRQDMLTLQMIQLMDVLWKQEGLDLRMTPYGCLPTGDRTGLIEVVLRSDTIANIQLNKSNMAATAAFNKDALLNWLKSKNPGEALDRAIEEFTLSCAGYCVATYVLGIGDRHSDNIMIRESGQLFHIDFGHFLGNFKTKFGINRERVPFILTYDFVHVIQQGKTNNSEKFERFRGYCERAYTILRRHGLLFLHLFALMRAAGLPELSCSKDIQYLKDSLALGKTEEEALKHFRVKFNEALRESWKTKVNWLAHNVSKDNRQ
Description: Enzyme binding assay (KINOMEscan, DiscoveRx). To be noted: PIK3Cδ_h. In outline:
(§2)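 Kinase binding measured via KINOMEscan, reported as affinity.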

Data set [2] has as its system Akt phosphorylated at Ser473 in PC-3 cells. Description: Cellular assay: phosphorylation of Akt at Ser473 in PC-3 cells (MSD ELISA). The class given is cell-based. The following applies: PC-3 cells, 60 min compound incubation, MSD ELISA, read-out: IC50 pAkt_S473. In outline:
as §1

Data set [3] has as its target T2, kinase enzymes (Homo sapiens, UniProt P42345).
T2 construct: purchased DiscoveRx Corporation, San Diego (contract service, KINOMEscan)
Description: Enzyme binding assay (KINOMEscan, DiscoveRx), further kinases of Table A. To be noted: MTOR_h. In outline: as §2

Data set [4] addresses T3, kinase enzymes (Homo sapiens, UniProt P42336).
T3 construct: purchased DiscoveRx Corporation, San Diego (contract service, KINOMEscan)
The description is as above. The following applies: PIK3Cα_h. Summed up: as §2

Data set [5] has as its target T4, kinase enzymes (Homo sapiens, UniProt P48736).
T4 construct: purchased DiscoveRx Corporation, San Diego (contract service, KINOMEscan)
The data set is described as above. To be noted: PIK3Cγ_h. In outline: as §2

Another data set addresses T5, PI3Kβ (Homo sapiens, UniProt P42338).
T5 construct: purchased DiscoveRx Corporation, San Diego (contract service, KINOMEscan)
Description: Enzyme binding assay (KINOMEscan, DiscoveRx). The following applies: PIK3Cβ_h, read-out: Kd PIK3Cβ_h. In outline: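 Reported Kd (nM) reflects inhibitor binding to the kinase, as measured by KINOMEscan technology.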

T3 sequence (P42336 whole entry): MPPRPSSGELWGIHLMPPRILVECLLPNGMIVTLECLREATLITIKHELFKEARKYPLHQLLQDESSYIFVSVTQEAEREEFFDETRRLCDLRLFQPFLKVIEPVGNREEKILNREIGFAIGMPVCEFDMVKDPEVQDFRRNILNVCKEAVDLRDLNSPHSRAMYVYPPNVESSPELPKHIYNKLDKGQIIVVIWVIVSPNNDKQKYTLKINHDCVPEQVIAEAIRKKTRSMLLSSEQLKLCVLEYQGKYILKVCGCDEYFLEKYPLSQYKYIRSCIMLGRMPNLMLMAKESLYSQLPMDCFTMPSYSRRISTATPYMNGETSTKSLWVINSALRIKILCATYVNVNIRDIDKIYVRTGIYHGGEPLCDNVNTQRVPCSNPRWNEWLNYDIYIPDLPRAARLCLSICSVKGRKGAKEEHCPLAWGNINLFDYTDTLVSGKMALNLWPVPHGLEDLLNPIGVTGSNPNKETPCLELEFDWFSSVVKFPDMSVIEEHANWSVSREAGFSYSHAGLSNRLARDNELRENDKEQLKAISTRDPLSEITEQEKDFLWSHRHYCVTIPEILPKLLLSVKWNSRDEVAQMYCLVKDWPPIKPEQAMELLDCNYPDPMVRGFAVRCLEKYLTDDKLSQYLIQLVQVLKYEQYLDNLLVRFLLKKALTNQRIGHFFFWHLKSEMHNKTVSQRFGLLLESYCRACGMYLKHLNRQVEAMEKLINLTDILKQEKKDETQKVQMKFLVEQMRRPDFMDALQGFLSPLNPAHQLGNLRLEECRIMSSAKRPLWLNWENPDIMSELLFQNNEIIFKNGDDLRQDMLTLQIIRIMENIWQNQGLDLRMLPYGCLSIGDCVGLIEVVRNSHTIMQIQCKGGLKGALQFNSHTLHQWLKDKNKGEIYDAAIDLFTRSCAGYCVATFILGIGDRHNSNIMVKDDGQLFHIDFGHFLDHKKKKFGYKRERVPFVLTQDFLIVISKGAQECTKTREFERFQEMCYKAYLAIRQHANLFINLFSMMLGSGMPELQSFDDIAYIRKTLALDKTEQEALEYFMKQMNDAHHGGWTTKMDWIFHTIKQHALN
T4 sequence (P48736 whole entry): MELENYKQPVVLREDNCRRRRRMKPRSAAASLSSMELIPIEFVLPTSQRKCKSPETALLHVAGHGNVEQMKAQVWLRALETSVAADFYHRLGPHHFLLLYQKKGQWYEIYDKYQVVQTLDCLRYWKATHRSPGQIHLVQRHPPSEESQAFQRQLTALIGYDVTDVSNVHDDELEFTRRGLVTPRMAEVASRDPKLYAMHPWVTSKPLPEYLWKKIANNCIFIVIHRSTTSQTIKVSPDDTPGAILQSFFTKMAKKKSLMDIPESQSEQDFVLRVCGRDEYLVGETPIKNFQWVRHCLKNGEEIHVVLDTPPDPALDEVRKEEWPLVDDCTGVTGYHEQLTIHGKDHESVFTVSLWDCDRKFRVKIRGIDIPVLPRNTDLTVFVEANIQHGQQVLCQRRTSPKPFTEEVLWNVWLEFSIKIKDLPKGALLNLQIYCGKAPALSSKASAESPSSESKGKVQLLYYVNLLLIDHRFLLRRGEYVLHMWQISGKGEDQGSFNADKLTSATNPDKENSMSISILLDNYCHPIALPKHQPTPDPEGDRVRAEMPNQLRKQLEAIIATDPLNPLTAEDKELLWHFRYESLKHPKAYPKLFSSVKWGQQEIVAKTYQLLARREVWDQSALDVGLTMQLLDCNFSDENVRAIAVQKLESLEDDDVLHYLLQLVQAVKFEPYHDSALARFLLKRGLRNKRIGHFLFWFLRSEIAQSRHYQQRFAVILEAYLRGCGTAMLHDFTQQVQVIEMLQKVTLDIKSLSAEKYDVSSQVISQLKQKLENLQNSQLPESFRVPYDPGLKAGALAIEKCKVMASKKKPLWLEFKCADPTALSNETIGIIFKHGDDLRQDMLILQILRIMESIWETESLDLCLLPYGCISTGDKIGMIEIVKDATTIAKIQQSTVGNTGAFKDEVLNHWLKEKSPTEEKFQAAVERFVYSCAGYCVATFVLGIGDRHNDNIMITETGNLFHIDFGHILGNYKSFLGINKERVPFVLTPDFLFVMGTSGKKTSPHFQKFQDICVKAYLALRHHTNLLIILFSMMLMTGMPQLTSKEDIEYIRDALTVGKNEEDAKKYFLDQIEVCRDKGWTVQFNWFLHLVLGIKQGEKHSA
T5 sequence (P42338 whole entry): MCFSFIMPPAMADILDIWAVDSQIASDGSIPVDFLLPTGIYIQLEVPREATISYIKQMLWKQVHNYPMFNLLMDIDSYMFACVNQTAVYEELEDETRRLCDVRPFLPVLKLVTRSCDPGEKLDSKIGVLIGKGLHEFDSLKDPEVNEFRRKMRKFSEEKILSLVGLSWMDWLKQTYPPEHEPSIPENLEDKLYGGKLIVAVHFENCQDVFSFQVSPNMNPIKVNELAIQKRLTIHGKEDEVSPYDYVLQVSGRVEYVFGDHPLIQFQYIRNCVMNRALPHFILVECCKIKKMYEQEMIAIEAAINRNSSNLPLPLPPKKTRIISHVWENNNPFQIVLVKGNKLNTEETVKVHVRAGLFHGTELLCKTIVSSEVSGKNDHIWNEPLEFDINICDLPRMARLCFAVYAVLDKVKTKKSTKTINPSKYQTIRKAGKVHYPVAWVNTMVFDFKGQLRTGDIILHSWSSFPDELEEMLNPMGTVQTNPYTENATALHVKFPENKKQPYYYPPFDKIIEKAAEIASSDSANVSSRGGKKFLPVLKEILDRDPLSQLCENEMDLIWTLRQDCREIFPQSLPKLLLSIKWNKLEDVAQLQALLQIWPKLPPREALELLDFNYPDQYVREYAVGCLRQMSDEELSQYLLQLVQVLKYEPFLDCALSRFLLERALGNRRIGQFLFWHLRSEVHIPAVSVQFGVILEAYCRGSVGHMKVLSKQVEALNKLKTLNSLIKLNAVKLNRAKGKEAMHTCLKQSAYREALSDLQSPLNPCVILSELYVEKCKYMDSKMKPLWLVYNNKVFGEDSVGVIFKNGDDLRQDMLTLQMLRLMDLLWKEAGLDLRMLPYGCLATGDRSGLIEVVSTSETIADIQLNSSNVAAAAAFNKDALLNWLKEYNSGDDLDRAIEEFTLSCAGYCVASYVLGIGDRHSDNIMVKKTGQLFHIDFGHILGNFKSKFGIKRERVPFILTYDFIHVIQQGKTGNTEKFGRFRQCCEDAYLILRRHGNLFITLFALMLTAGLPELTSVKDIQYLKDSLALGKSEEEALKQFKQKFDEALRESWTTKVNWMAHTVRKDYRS

Take `C[C@H](CO)NCc1cc(F)cc(N2CCCC2c2cc(C(=O)N(C)C)cc3ncc(N4CCOCC4)nc23)c1` (mixture of isomers) [Compound 48]: the melting point was 80 °C. Moreover, the pIC50 in data set [1] (Homo sapiens, PC-3, 1 h) was approximately 6.34. The pKd at PI3Kδ is 6.14. For the same compound, in data set [2] (Homo sapiens, PC-3, 1 h), the pIC50 was less than 6.29. This compound also showed a pKd at kinase enzymes [3] of less than 4.52. The same compound gave a negative logarithm of the Kd (pKd) at kinase enzymes [4] of 5.61. Further, on kinase enzymes [5], the pKd is 4.83. At PI3Kβ, the pKd is 7.55.

Compound `CC(Nc1cc(F)cc(F)c1)c1cc(CNCC(F)(F)F)cc2ncc(N3CCOCC3)nc12` (single isomer, unassigned) [Compound 162] came in with a melting point of 80 °C. Besides, the negative logarithm of the IC50 (pIC50) in data set [1] was 7.04. Also, the pKd at PI3Kδ was 5.91. Further, in data set [2], the pIC50 was 6.68. This compound also had a pKd on kinase enzymes [3] of less than 4.52. Besides, the pKd at kinase enzymes [4] is 5.40. Also, the pKd at kinase enzymes [5] was 4.61. Also, the pKd on PI3Kβ was 8.05.

`CN(CCO)Cc1cc(C2CCCN2c2cc(F)cc(F)c2)c2nc(N3CCOCC3)cnc2c1` (stereo not drawn) [Compound 101] yielded a melting point of 80 °C. The pIC50 in data set [1] (Homo sapiens, PC-3, 1 h) was 7.85. This compound showed a pKd on PI3Kδ of 7.40. For the same compound, the pIC50 in data set [2] (Homo sapiens, PC-3, 1 h) was 7.68. The pKd at kinase enzymes [3] is less than 4.52. Besides, the pKd at kinase enzymes [4] was 6.58. For the same compound, the pKd at kinase enzymes [5] was 6.40. In addition, the pKd at PI3Kβ is 9.40.

`CCc1cccc(NC(C)c2cc(C(=O)N3CCOCC3)cc3ncc(N4CCOCC4)nc23)c1` (stereo not drawn) [Compound 125] registered a melting point of 80 °C. Moreover, in data set [1] (Homo sapiens, PC-3, 1 h), the pIC50 is less than 6.29. At PI3Kδ, this compound gave a pKd of 5.23. Besides, the pIC50 in data set [2] (Homo sapiens, PC-3, 1 h) is less than 6.29. Besides, the pKd at kinase enzymes [3] was less than 4.52. Also, the pKd at kinase enzymes [4] is 5.19. Also, the pKd on kinase enzymes [5] was less than 4.52. At PI3Kβ, the pKd was 7.17.

In turn, `CC(Nc1ccc(F)c(F)c1)c1cc(C(=O)NCCO)cc2ncc(N3CCOCC3)nc12` (single isomer, unassigned) [Compound 279a] registered a melting point of 80 °C. In data set [1], the pIC50 was 7.39. The pKd on PI3Kδ was 6.29. Besides, the pIC50 in data set [2] (Homo sapiens, PC-3, 1 h) is 7.24. Further, the pKd on kinase enzymes [3] is 4.67. On kinase enzymes [4], this compound showed a pKd of 5.66. Moreover, the pKd on kinase enzymes [5] was 5.25. Also, the pKd at PI3Kβ was 8.15.

`CC(Nc1ccc(F)c(F)c1)c1cc(C(=O)NCC2CCCN2)cc2ncc(N3CCOCC3)nc12` (single isomer, unassigned) [Compound 329a] had a melting point of 121 °C. Further, the pIC50 in data set [1] is 8.22. Further, the pKd on PI3Kδ was 7.59. In addition, the pIC50 in data set [2] was 7.85. Also, at kinase enzymes [3], the pKd was 4.64. In addition, the pKd at kinase enzymes [4] was 6.47. At kinase enzymes [5], this compound showed a pKd of 5.56. On PI3Kβ, the pKd is 10.00.

Regarding `CN[C@H]1CCN(C(=O)c2cc(C(C)Nc3ccc(F)c(F)c3)c3nc(N4CCOCC4)cnc3c2)C1` (mixture of isomers) [Compound 365], the melting point turned out to be 80 °C. Besides, in data set [1] (Homo sapiens, PC-3, 1 h), the pIC50 was 7.89. The same compound showed a pKd at PI3Kδ of 6.93. In addition, the pIC50 in data set [2] (Homo sapiens, PC-3, 1 h) is 7.70. Also, the pKd on kinase enzymes [3] is less than 4.52. On kinase enzymes [4], this compound showed a pKd of 5.68. The compound further showed a pKd at kinase enzymes [5] of 5.54. In addition, the pKd at PI3Kβ is 9.00.

For `CC(Nc1cc(F)cc(F)c1)c1cc(C(=O)NCCO)cc2ncc(N3CCOCC3)nc12` (single isomer, unassigned) [Compound 188], the melting point came to 80 °C. The pIC50 in data set [1] is 7.82. Moreover, the pKd on PI3Kδ was 6.74. Further, the pIC50 in data set [2] was 7.66. The compound further showed a negative-log Kd (pKd) at kinase enzymes [3] of 4.79. On kinase enzymes [4], this compound had a pKd of 6.07. In addition, the pKd at kinase enzymes [5] is 5.64. The pKd at PI3Kβ is 9.00.

In the case of `CC(Nc1cc(F)cc(F)c1)c1cc(CN2CCOCC23COC3)cc2ncc(N3CCOCC3)nc12` (single isomer, unassigned) [Compound 192], the melting point was 229 °C. Also, in data set [1], the pIC50 was less than 6.29. Moreover, the pKd at PI3Kδ was less than 4.52. The pIC50 in data set [2] was less than 6.29. Moreover, on kinase enzymes [3], the pKd was less than 4.52. Further, the pKd on kinase enzymes [4] is less than 4.52. Moreover, on kinase enzymes [5], the pKd is less than 4.52. Also, the pKd at PI3Kβ is 5.04.
